Assay results from ChEMBL document CHEMBL5241115, “Postmodification of voxelotor (GBT 440) via [Rh]-catalyzed cross dehydrogenative coupling with olefins” (2022).

Experiment: Induction of oxygen binding efficiency of haemoglobin from human sickled red blood cells at 100 uM measured every 10 mins for 180 mins by spectral scan analysis relative to control
Format: functional, Erythrocyte
Settings: 3 h

Structure (SMILES) | Activity
CCCCC(=O)/C=C/c1cnn(C(C)C)c1-c1ncccc1COc1cccc(O)c1C=O | 82%
CC(C)n1nccc1-c1ncccc1COc1cccc(O)c1C=O [VOXELOTOR] | 100%
COc1ccc(/C=C/c2cnn(C(C)C)c2-c2ncccc2COc2cccc(O)c2C=O)cc1 | 78.6%
Cc1ccc(/C=C/c2cnn(C(C)C)c2-c2ncccc2COc2cccc(O)c2C=O)cc1 | 78.9%
COc1ccc(/C=C/c2cnn(C(C)C)c2-c2ncccc2COc2cccc(O)c2C=O)c(OC)c1 | 81.1%
